Reference: US6797720B2, “1,3,4-oxadiazoline derivative and an agent comprising its derivative as active ingredient” (ONO Pharmaceutical Co., Ltd., priority 1999, dated 2004)

Key:
Type in all cases: biochemical
cathepsin K = target: T1, cathepsin K (Homo sapiens, UniProt P43235); assay: Measurement of cathepsin K inhibitory activity; details: Dixon plot, pH 5.5, 37° C.
T1 sequence (P43235 115-329): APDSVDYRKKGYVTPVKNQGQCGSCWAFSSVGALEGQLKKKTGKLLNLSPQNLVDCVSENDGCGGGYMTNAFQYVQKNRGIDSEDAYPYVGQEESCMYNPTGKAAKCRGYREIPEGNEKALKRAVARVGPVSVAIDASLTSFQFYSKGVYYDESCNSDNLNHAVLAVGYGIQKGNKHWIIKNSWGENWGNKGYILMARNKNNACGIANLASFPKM
Procedure: (i) Measurement of Cathepsin K Inhibitory Activity
Cathepsin K enzyme reaction buffer (50 mmol/L 2-(N-morpholino)ethanesulfonate, 2 mmol/L ethylenediamine tetraacetate (EDTA) and 4 mmol/L dithiothreitol (DTT) were mixed to adjust to pH 5.5) (65 μL), cysteine protease inhibitor solution (5 μL) of several concentrations, synthesized substrate (t-butyloxycarbonyl-L-alanyl-glycyl-L-prolyl-L-arginine-4-me thyl-chromanyl-7-amide) solution (20 μL) of several concentrations and cathepsin K enzyme solution (10 μL) were mixed and the increase of fluorescence intensity when reacted at 37° C. was measured (λex(excitation wavelength)355 nm, λem (fluorescence wavelength) 460 nm). As to the substrate and the compound of the present invention, enzyme reactions were carried out in combination of several appropriate concentrations, Dixon plotting was prepared, to define the absolute value of X-coordinate of the intersection point of the graph as Ki value.

cathepsin S = cathepsin S (Homo sapiens, UniProt P25774); assay: Measurement of cathepsin S inhibitory activity
Chain of cathepsin S (P25774 115-331, species assumed): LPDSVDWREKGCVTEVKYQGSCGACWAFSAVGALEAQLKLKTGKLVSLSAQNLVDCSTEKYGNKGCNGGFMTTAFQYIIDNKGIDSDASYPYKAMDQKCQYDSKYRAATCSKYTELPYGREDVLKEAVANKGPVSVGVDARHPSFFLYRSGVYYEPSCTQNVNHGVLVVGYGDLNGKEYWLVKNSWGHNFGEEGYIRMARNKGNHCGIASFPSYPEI
Procedure: (iii) Measurement of Cathepsin S Inhibitory Activity
Synthesized substrate of several concentrations (carbobenzoxy-L-leucyl-L-leucyl-L-arguinine-4-methyl-chroman yl-7-amide) solution (10 μL), cysteine protease inhibitor solution (5 μL) of several concentrations, cathepsin S enzyme reaction buffer (100 mmol/L sodium phosphate, 2 mmol/L EDTA, 2 mmol/L DTT were mixed to adjust to pH 6.5) (75 μL) and cathepsin S enzyme solution (10 μL) were mixed and the increase of fluorescence intensity was measured (λex=355 nm, λem=460 nm) when reacted at 37° C.

cathepsin L = cathepsin L (Homo sapiens, UniProt P07711); assay: Measurement of cathepsin L inhibitory activity
Chain of cathepsin L (P07711 114-333, species assumed): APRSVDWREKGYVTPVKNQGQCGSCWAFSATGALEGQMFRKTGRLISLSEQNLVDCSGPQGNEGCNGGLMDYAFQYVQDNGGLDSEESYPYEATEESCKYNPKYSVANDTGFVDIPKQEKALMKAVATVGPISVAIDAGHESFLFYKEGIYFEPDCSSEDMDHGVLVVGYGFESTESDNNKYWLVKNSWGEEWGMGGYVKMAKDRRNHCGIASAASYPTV
Procedure: (iv) Measurement of Cathepsin L Inhibitory Activity
Synthesized substrate of several concentrations (carbobenzoxy-L-phenylalanyl-L-arguine-4-methyl-chromanyl-7-amide or L-prolyl-L-phenylalanyl-L-arguinine-4-methyl-chromanyl-7-amide) solution (5 μL), cysteine protease inhibitor solution (5 μL) of several concentrations, cathepsin L enzyme reaction buffer (400 mmol/L acetic acid, 4 mmol/L EDTA, 8 mmol/L DTT were mixed to adjust to pH 5.5) 80 μL and cathepsin L enzyme solution (10 μL) were mixed and the increase of fluorescence intensity was measured (λex=355 nm, λem=460 nm) when reacted at 37° C.

cathepsin B = cathepsin B (Homo sapiens, UniProt P07858); assay: Measurement of cathepsin B inhibitory activity
Procedure: (ii) Measurement of Cathepsin B Inhibitory Activity
Synthesized substrate of several concentrations (carbobenzoxy-L-arginyl-L-arginine-4-methyl-chromanyl-7-amide or carbobenzoxy-L-phenylalanyl-L-arginine-4-methyl-chromanyl-7-amide) solution (10 μL), cysteine protease inhibitor solution of several concentrations (10 μL), cathepsin B enzyme reaction buffer (mixture of 400 mmol/L in acetic acid, 4 mmol/L EDTA, 8 mmol/L DDT to adjust to pH 5.5) 70 μL and cathepsin B enzyme solution 10 μL were mixed and the increase of fluorescence intensity was measured (λex=355 nm, λem=460 nm) when reacted at 37° C.

Ki (cathepsin K) | inhibition at 1 µM (cathepsin S) | inhibition at 1 µM (cathepsin L) | inhibition at 1 µM (cathepsin B) | SMILES
13 nM | 99% | 100% | 97% | CC(C)C[C@H](NC(=O)OCc1ccccc1)C(=O)N[C@@H](CC(C)C)C(=O)c1n[nH]c(=O)o1 [Example 1 (1), (2S)-N-[(2S)-4-methyl-1-oxo-1-(2-oxo-1,3,4-oxadiazolin-5-yl)-2-pentyl]-4-methyl-2-(benzyloxycarbonylamino)pentanamide]
86 nM |  |  |  | CC(C)C[C@H](NC(=O)[C@@H]1CCCC[C@@H]1NC(=O)c1ccccc1)C(=O)c1n[nH]c(=O)o1 [example 1]
